Consider 19 compounds from US8778939B2, “Compounds” (Glaxo Group Limited, priority 2009, dated 2014).

What all share (type): biochemical
In assay [1] the target is T1, 6His-Tev-LRRK2 (1326-2527) (Homo sapiens, UniProt Q5S007).
T1 construct: A LRRK2 cDNA encoding residues 1326-2527 was received from Dundee University; made in house; host or cells: Spodoptera frugiperda (Sf9) insect cells, baculovirus
T1 sequence (Q5S007 1326-2527): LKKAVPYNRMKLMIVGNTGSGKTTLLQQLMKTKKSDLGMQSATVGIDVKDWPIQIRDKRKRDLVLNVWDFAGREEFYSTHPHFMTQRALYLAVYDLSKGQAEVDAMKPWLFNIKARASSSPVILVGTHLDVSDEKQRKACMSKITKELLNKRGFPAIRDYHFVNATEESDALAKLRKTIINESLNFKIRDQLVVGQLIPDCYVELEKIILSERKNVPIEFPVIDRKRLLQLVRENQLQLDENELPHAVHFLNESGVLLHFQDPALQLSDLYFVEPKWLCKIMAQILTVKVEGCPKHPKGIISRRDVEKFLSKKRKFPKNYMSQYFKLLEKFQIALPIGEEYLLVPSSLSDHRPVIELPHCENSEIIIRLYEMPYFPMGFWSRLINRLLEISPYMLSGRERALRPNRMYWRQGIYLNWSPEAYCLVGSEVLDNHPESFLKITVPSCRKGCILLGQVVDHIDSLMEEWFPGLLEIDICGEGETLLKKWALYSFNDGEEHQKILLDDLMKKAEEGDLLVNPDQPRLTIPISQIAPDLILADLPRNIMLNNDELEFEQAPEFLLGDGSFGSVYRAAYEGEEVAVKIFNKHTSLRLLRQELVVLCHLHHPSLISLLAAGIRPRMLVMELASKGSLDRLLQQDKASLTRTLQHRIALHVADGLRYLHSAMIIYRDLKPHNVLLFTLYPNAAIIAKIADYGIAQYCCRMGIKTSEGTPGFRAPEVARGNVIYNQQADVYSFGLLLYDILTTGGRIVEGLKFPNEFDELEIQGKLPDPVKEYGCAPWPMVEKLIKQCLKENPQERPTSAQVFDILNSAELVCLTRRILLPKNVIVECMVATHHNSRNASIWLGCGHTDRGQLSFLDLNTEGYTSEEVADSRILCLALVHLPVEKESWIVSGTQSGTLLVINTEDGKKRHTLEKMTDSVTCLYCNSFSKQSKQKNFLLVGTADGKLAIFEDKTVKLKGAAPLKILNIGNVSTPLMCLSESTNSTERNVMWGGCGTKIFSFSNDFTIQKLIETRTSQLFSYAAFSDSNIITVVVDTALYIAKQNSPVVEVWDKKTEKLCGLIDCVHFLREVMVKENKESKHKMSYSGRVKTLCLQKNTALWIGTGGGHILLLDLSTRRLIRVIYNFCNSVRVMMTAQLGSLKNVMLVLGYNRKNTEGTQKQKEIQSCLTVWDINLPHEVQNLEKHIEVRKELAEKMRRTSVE
The experiment in a line: LRRK2 AlphaScreen desensitised protein substrate assay. In a few lines:
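Purified 6His-Tev-LRRK2 (1326-2527), 80 nM in enzyme solution, in pH 7.2 Hepes buffer with MgCl2 and DTT; compound 1:4 dilutions, top final 30 μM. ATP 2 mM in substrate solution, 20 min at room temperature. Phospho-ERM (Thr567/564/558) detected by AlphaScreen.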
(Alpha assays give light when donor and acceptor beads are brought close together.)

The target of assay [2] is T1, 6His-Tev-LRRK2 (1326-2527). Briefly: LRRK2 peptide substrate assay. The following applies: Biotin-LRRKtide peptide substrate, ATP at Km. In a few lines: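 Recombinant 6His-Tev-LRRK2 (1326-2527), 80 nM in enzyme solution, in pH 7.2 Hepes/MgCl2 buffer with DTT; compounds in 1:4 serial dilution from 30 μM top final. Reaction 1-2 h at room temperature, stopped with EDTA; phospho-moesin (Thr558) antibody with Eu/APC TR-FRET detection after 2 h (ex 330, em 620/665 nm).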

The target of assay [3] is T1, 6His-Tev-LRRK2 (1326-2527). The experiment in a line: LRRK2 AlphaScreen protein substrate assay. The following applies: GST-PS-Moesin (400-577) substrate, ATP at Km; read-out: pIC50 in the LRRK2 alphascreen protein substrate assay (converted). On the procedure: a) 100 nl of a 1:4 serial dilution of test compound with a top final assay concentration of 30 μM is added to certain wells in a low volume 384 well black plate. 100 nl of DMSO is used in certain wells as controls.
b) 3 μl enzyme solution (80 nM purified recombinant 6His-Tev-LRRK2 (1326-2527) in assay buffer: 50 mM Hepes (pH 7.2), 10 mM MgCl2, 150 mM NaCl, 5% glycerol, 0.0025% triton X-100 and 1 mM DTT) is added to certain wells.
Plates are then incubated for a further 1-2 hours at room temperature (incubation time varies depending upon rate and linearity of reaction with differing enzyme batches).
d) 6 μl detection solution (1:250 dilution of AlphaLisa Protein A Acceptor beads (PerkinElmer), 1:64 dilution of AlphaLisa Gluthathione Donor beads (PerkinElmer) and 1:600 dilution (dilution determined on a batch to batch basis) of Phospho-Ezrin (Thr567)/Radixin (Thr564)/Moesin (Thr558) Polyclonal Antibody (New England Biolabs) in a buffer: 50 mM Hepes (pH 7.5), 250 mM NaCl, 60 mM EDTA, 1% PEG and 0.01% Brij 35) is added to each well. Plates are then incubated for a further 2 hours at room temperature in the dark before reading on an EnVision™ plate reader with AlphaScreen HTS turbo option module and AlphaScreen settings. Data is analysed using ActivityBase software (IDBS).

[4] abbreviates: excess of ATP present (2 mM ATP), read-out: pIC50 in the LRRK2 alphascreen desensitised protein substrate assay (converted).
Setting [5] is: read-out: pIC50 in the LRRK2 peptide substrate assay (converted).
Where [6] appears, read: mean pIC50, GST-PS-Moesin (400-577) substrate, 2 mM ATP (excess of ATP present), read-out: LRRK2 alphascreen desensitised protein substrate assay (pIC50) (converted).
The mark [7] stands for this setting: mean pIC50, read-out: LRRK2 peptide substrate assay (pIC50) (converted).

Take `CC(C)c1ccc(OCc2ccccc2)c(C(=O)Nc2cccnc2)c1` [Example 1, 5-(1-Methylethyl)-2-[(phenylmethyl)oxy]-N-3-pyridinylbenzamide]: the IC50 in assay [1] (setting [4]) was no more than 20000 nM; in assay [2] (setting [5]) it was no more than 100 nM; in assay [3], no more than 100 nM.
On to `O=C(Nc1cccnc1)c1cc(Br)ccc1OCc1ccccc1` [Example 2, 5-Bromo-2-[(phenylmethyl)oxy]-N-3-Pyridinylbenzamide], for which the figures for the IC50 in assay [1] (setting [4]), in assay [2] (setting [5]) and in assay [3] were no more than 20000 nM, no more than 100 nM and no more than 100 nM, respectively.
Consider `N#Cc1ccc(OCc2ccccc2)c(C(=O)Nc2cccnc2)c1` [Example 8, 5-Cyano-2-[(phenylmethyl)oxy]-N-3-pyridinylbenzamide], for which the IC50 in assay [1] (setting [4]) was no more than 20000 nM; in assay [2] (setting [5]), no more than 100 nM; in assay [3], no more than 100 nM.
As for `O=C(Nc1cccnc1)c1cc(Br)ccc1OCc1ccc(Cl)cc1` [Example 9, 5-Bromo-2-{[(4-chlorophenyl)methyl]oxy}-N-3-pyridinylbenzamide], the IC50 in assay [1] (setting [4]) is no more than 20000 nM; in assay [2] (setting [5]) it was no more than 100 nM; in assay [3], no more than 100 nM.
Consider `COc1cccc(COc2ccc(Br)cc2C(=O)Nc2cccnc2)c1` [Example 18, 5-Bromo-2-({[3-(methyloxy)phenyl]methyl}oxy)-N-3-pyridinylbenzamide], for which the IC50 was greater than 25100 nM in assay [1] (setting [4]) and no more than 7940 nM in assay [3].
Regarding `CCc1cccc(NC(=O)c2cc(Br)ccc2OCc2ccccc2)c1` [Example 20, 5-Bromo-N-(3-ethylphenyl)-2-[(phenylmethyl)oxy]benzamide], the IC50 in assay [1] (setting [4]) was greater than 25100 nM; in assay [3] it was no more than 7940 nM.
Regarding `COc1ccccc1COc1ccc(Br)cc1C(=O)Nc1cccnc1` [Example 21, 5-Bromo-2-({[2-(methyloxy)phenyl]methyl}oxy)-N-3-pyridinylbenzamide], the IC50 in assay [1] (setting [4]) was no more than 20000 nM; in assay [3] it was no more than 7940 nM.
As to `O=C(Nc1ccccn1)c1cc(Br)ccc1OCc1ccccc1` [Example 22, 5-Bromo-2-[(phenylmethyl)oxy]-N-2-pyridinylbenzamide], the IC50 in assay [1] (setting [4]) and in assay [3] was greater than 25100 nM throughout.
`N#Cc1ccccc1COc1ccc(Br)cc1C(=O)Nc1cccnc1` [Example 23, 5-Bromo-2-{[(2-cyanophenyl)methyl]oxy}-N-3-pyridinylbenzamide]: the IC50 in assay [1] (setting [4]) is no more than 20000 nM; in assay [3], no more than 7940 nM.
Consider `O=C(O)Cc1cccc(NC(=O)c2cc(Cl)ccc2OCc2ccccc2)c1` [Example 25, {3-[({5-Chloro-2-[(phenylmethyl)oxy]phenyl}carbonyl)amino]phenyl}acetic acid], for which the IC50 in assay [3] is no more than 7940 nM.
On to `CNC(=O)c1cccc(NC(=O)c2cc(Br)ccc2OCc2ccccc2)c1` [Example 27, 5-Bromo-N-{3-[(methylamino)carbonyl]phenyl}-2-[(phenylmethyl)oxy]benzamide], for which the IC50 is greater than 25100 nM in assay [1] (setting [4]) and no more than 7940 nM in assay [3].
With `O=C(Nc1cccnc1F)c1cc(C(=O)N2CCOCC2)ccc1OCc1ccc(F)cc1` [Example 123, 2-{[(4-Fluorophenyl)methyl]oxy}-N-(2-fluoro-3-pyridinyl)-5-(4-morpholinylcarbonyl)benzamide], the IC50 in assay [1] (setting [4]) was no more than 20000 nM; in assay [1] (setting [6]), 2510 nM; in assay [2] (setting [5]) it was no more than 100 nM; in assay [2] (setting [7]), 39.8 nM.
Turning to `O=C(Nc1cccnc1F)c1cc(C(=O)N2CCOCC2)ccc1OCc1ccc(F)cc1F` [Example 125, 2-{[(2,4-Difluorophenyl)methyl]oxy)-N-(2-fluoro-3-pyridinyl)-5-(4-morpholinylcarbonyl)benzamide], the IC50 in assay [1] (setting [4]) is no more than 20000 nM; in assay [2] (setting [5]), no more than 100 nM.
With `O=C(Nc1cccnc1)c1cc(C(=O)N2CCOCC2)ccc1OCc1ccc(F)cc1` [Example 127, 2-{[(4-Fluorophenyl)methyl]oxy}-5-(4-morpholinylcarbonyl)-N-3-pyridinylbenzamide], the IC50 was no more than 20000 nM in assay [1] (setting [4]), 10000 nM in assay [1] (setting [6]), no more than 100 nM in assay [2] (setting [5]) and 63.1 nM in assay [2] (setting [7]).
Consider `O=C(Nc1cccnc1)c1cc(-c2cnn(CCN3CCOCC3)c2)ccc1OCc1ccc(F)cc1` [Example 128, 2-{[(4-Fluorophenyl)methyl]oxy}-5-{1-[2-(4-morpholinyl)ethyl]-1H-pyrazol-4-yl}-N-3-pyridinylbenzamide], for which the IC50 was no more than 20000 nM in assay [1] (setting [4]), 126 nM in assay [1] (setting [6]), no more than 10 nM in assay [2] (setting [5]) and 7.94 nM in assay [2] (setting [7]).
As for `Cc1nocc1NC(=O)c1cc(-c2cnn(CCN3CCOCC3)c2)ccc1OCc1ccc(F)cc1` [Example 129, 2-([(4-Fluorophenyl)methyl]oxy)-N-(3-methyl-4-isoxazolyl)-5-{1-[2-(4-morpholinyl)ethyl]-1H-pyrazol-4-yl}benzamide], the IC50 is greater than 25100 nM in assay [1] (setting [4]), greater than 25100 nM in assay [1] (setting [6]), no more than 100 nM in assay [2] (setting [5]) and 12.6 nM in assay [2] (setting [7]).
Take `COCCn1cc(-c2ccc(OCc3ccc(F)cc3)c(C(=O)Nc3cccnc3)c2)cn1` [Example 130, 2-{[(4-Fluorophenyl)methyl]oxy}-5-{1-[2-(methyloxy)ethyl]-1H-pyrazol-4-yl}-N-3-pyridinylbenzamide]: the IC50 is no more than 20000 nM in assay [1] (setting [4]), 31.6 nM in assay [1] (setting [6]), no more than 10 nM in assay [2] (setting [5]) and 3.16 nM in assay [2] (setting [7]).
On to `Cn1cc(-c2ccc(OCc3ccc(F)cc3)c(C(=O)Nc3cnoc3)c2)cn1` [Example 134, 2-{[(4-Fluorophenyl)methyl]oxy}-N-4-isoxazolyl-5-(1-methyl-1H-pyrazol-4-yl)benzamide], for which the IC50 was no more than 20000 nM in assay [1] (setting [4]) and no more than 100 nM in assay [2] (setting [5]).
As to `O=C(Nc1cccnc1)c1cc(CCCN2CCOCC2)ccc1OCc1ccc(F)cc1` [Example 136, 2-{[(4-Fluorophenyl)methyl]oxy}-5-[3-(4-morpholinyl)propyl]-N-3-pyridinylbenzamide], the IC50 in assay [1] (setting [4]) is no more than 20000 nM; in assay [1] (setting [6]) it was 398 nM; in assay [2] (setting [5]), no more than 100 nM; in assay [2] (setting [7]), 100 nM.
